One block for each molecule: values may come before it.
Assays:
BCL2 G101V [1] = target: BCL2 G101V (Homo sapiens, UniProt P10415, G101V); assay: TR-FRET competitive binding assay, BCL2 G101V; conditions: BCL2 G101V; Ki determined from IC50; read-out: TR_FRET EKI_Bcl2 G101V
In short: (§1)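 Ki derived from IC50 (11-point dilution, 520/495 nm emission ratio) for displacing a fluorescein-labelled PUMA peptide (2 or 20 nM). Target was 0.5 nM E. coli-expressed Halo-tagged BCL2 (1-207) or BCLXL (2-196), terbium-labelled on Halo. Incubation 2 h at 23°C in pH 7.5 Hepes with 150 mM NaCl and 5% DMSO.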

BCL2 G101V [2] = assay: TR-FRET competitive binding assay, BCL2 G101V; set-up: species or system human; conditions: ratio Ki BCL2 G101V / Ki BCL2 WT
In short: as §1

BCL2 D103Y = BCL2 D103Y (Homo sapiens, UniProt P10415, D103Y); assay: TR-FRET competitive binding assay, BCL2 D103Y; conditions: Ki determined from IC50, read-out: TR_FRET EKI_Bcl2 D103Y
In short: as §1

KMS12PE Bcl2 G101V = assay: In vitro cytotoxicity CellTiterGlo 72 h, KMS12PE Bcl2 G101V; assay type: cell-based; conditions: Homo sapiens, KMS-12-PE, read-out: C50 nM, KMS12PE Bcl2 G101V
Method: (§2) KMS-12-PE (ACC 606) were purchased from the Leibniz-Institute DSMZ (Braunschweig, Germany) and were grown at 37° C. in a humidified atmosphere with 5% CO2 in media recommended by the suppliers. Lentiviral particles containing Bcl-2 wild type (also named “Bcl2 WT”), Bcl-2 mutated on G101V (also named “Bcl2 G101V”), Bcl-2 mutated on D103Y (also named “Bcl2 D103Y”), Bcl-2 mutated on D103V (also named “Bcl2 D103V”), Bcl-2 mutated on D103E (also named “Bcl2 D103E”), Bcl-2 mutated on F104I (also named “Bcl2 F104I”), Bcl-2 mutated on F104L (also named “Bcl2 F104L”), Bcl-2 mutated on D111A (also named “Bcl2 D111A”), Bcl-2 mutated on A113G (also named “Bcl2 A113G”), Bcl-2 mutated on R129L (also named “Bcl2 R129L”), Bcl-2 mutated on V156D (also named “Bcl2 V156D”) were cloned into pcLV-CMV-DEST-IRES-TagRFP. Lentiviral particles (1×10^6) were mixed with Polybrene at 8 μg/ml and transduced by spinoculation for 1 h at 32° C. and incubated overnight. After 8 days, TagRFP positive-cells were sorted by FACS. BCL2 expression was monitored by immunoblotting using anti-Flag and anti-BCL2 antibodies. Cells were seeded into 96-wells plates and treated with 1:3.16 serial dilution of compounds (9 different concentrations). Cell viability was assessed using CellTiterGlo reagent following treatment for 72 h. Results were normalized to the viability of cells without compounds (control wells). The C50 values were calculated using nonlinear regression algorithms in XCell software.

KMS12PE Bcl2 V156D = assay: In vitro cytotoxicity CellTiterGlo 72 h, KMS12PE Bcl2 V156D; assay type: cell-based; conditions: Homo sapiens, KMS-12-PE, read-out: C50 nM, KMS12PE Bcl2 V156D
Method: as §2

KMS12PE Bcl2 D103V = assay: In vitro cytotoxicity CellTiterGlo 72 h, KMS12PE Bcl2 D103V; assay type: cell-based; conditions: Homo sapiens, KMS-12-PE, read-out: C50 nM, KMS12PE Bcl2 D103V
Method: as §2

KMS12PE Bcl2 F104L = assay: In vitro cytotoxicity CellTiterGlo 72 h, KMS12PE Bcl2 F104L; assay type: cell-based; conditions: Homo sapiens, KMS-12-PE, read-out: C50 nM, KMS12PE Bcl2 F104L
Method: as §2

Ki (BCL2 G101V [1]): 0.3 nM
TR_FRET EKI G101V/WT selectivty ratio (BCL2 G101V [2]): 3.1
Ki (BCL2 D103Y): 0.35 nM
SMILES: Cc1c(N(C(=O)c2cc(-c3cc4c(cc3C(=O)N3Cc5ccccc5C[C@H]3C)CN(C(=O)Cc3ccc(OCCN5CCOCC5)cc3)CC4)n(C)c2C)c2ccc(O)cc2)cc(C#N)n1C [Example 21, N-(5-cyano-1,2-dimethyl-1H-pyrrol-3-yl)-N-(4-hydroxyphenyl)-1,2-dimethyl-5-{7-[(3R)-3-methyl-1,2,3,4-tetrahydroisoquinoline-2-carbonyl]-2-(2-{4-[2-(morpholin-4-yl)ethoxy]phenyl}acetyl)-1,2,3,4-tetrahydroisoquinolin-6-yl}-1H-pyrrole-3-carboxamide]
IC50 (KMS12PE Bcl2 G101V): 9.36 nM
IC50 (KMS12PE Bcl2 V156D): 9.77 nM
IC50 (KMS12PE Bcl2 D103V): 3.34 nM
IC50 (KMS12PE Bcl2 F104L): 15.8 nM

Ki (BCL2 G101V [1]): 1.2 nM
TR_FRET EKI G101V/WT selectivty ratio (BCL2 G101V [2]): 1.5
Ki (BCL2 D103Y): 0.73 nM
SMILES: Cc1c(N(C(=O)c2cc(-c3cc4c(cc3C(=O)N3Cc5ccccc5C[C@H]3C)CN(C(=O)Cc3ccc(OCCC5CCOCC5)cc3)CC4)n(C)c2C)c2ccc(O)cc2)cc(C#N)n1C [Example 27, N-(5-cyano-1,2-dimethyl-1H-pyrrol-3-yl)-N-(4-hydroxyphenyl)-1,2-dimethyl-5-{7-[(3R)-3-methyl-1,2,3,4-tetrahydroisoquinoline-2-carbonyl]-2-(2-{4-[2-(oxan-4-yl)ethoxy]phenyl}acetyl)-1,2,3,4-tetrahydroisoquinolin-6-yl}-1H-pyrrole-3-carboxamide]
IC50 (KMS12PE Bcl2 G101V): 7.19 nM
IC50 (KMS12PE Bcl2 V156D): 3.84 nM
IC50 (KMS12PE Bcl2 D103V): 1.55 nM
IC50 (KMS12PE Bcl2 F104L): 5.51 nM

Ki (BCL2 G101V [1]): 0.2 nM
TR_FRET EKI G101V/WT selectivty ratio (BCL2 G101V [2]): 2.8
Ki (BCL2 D103Y): 0.18 nM
SMILES: Cc1c(N(C(=O)c2cc(-c3cc4c(cc3C(=O)N3Cc5ccccc5C[C@H]3C)CN(C(=O)Cc3ccc(OCCN5CCC(F)CC5)cc3)CC4)n(C)c2C)c2ccc(O)cc2)cc(C#N)n1C [Example 53, N-(5-cyano-1,2-dimethyl-1H-pyrrol-3-yl)-5-[2-(2-{4-[2-(4-fluoropiperidin-1-yl)ethoxy]phenyl}acetyl)-7-[(3R)-3-methyl-1,2,3,4-tetrahydroisoquinoline-2-carbonyl]-1,2,3,4-tetrahydroisoquinolin-6-yl]-N-(4-hydroxyphenyl)-1,2-dimethyl-1H-pyrrole-3-carboxamide]
IC50 (KMS12PE Bcl2 G101V): 16.3 nM
IC50 (KMS12PE Bcl2 V156D): 21.4 nM
IC50 (KMS12PE Bcl2 D103V): 5.38 nM
IC50 (KMS12PE Bcl2 F104L): 25.5 nM

Ki (BCL2 G101V [1]): 0.2 nM
TR_FRET EKI G101V/WT selectivty ratio (BCL2 G101V [2]): 2.4
Ki (BCL2 D103Y): 0.16 nM
SMILES: Cc1c(N(C(=O)c2cc(-c3cc4c(cc3C(=O)N3Cc5ccccc5C[C@H]3C)CN(C(=O)Cc3ccc(OCCN5CCSCC5)cc3)CC4)n(C)c2C)c2ccc(O)cc2)cc(C#N)n1C [Example 55, N-(5-cyano-1,2-dimethyl-1H-pyrrol-3-yl)-N-(4-hydroxyphenyl)-1,2-dimethyl-5-{7-[(3R)-3-methyl-1,2,3,4-tetrahydroisoquinoline-2-carbonyl]-2-(2-{4-[2-(thiomorpholin-4-yl)ethoxy]phenyl}acetyl)-1,2,3,4-tetrahydroisoquinolin-6-yl}-1H-pyrrole-3-carboxamide]
IC50 (KMS12PE Bcl2 G101V): 13.7 nM
IC50 (KMS12PE Bcl2 V156D): 14.9 nM
IC50 (KMS12PE Bcl2 D103V): 4.48 nM
IC50 (KMS12PE Bcl2 F104L): 19.7 nM

Ki (BCL2 G101V [1]): 0.5 nM
TR_FRET EKI G101V/WT selectivty ratio (BCL2 G101V [2]): 5.7
Ki (BCL2 D103Y): 0.23 nM
SMILES: Cc1c(N(C(=O)c2cc(-c3cc4c(cc3C(=O)N3Cc5ccccc5C[C@H]3CN3CCCCC3)CN(C(=O)Cc3ccc(OCCC5CCOCC5)cc3)CC4)n(C)c2C)c2ccc(O)cc2)cc(C#N)n1C [Example 66, N-(5-cyano-1,2-dimethylpyrrol-3-yl)-N-(4-hydroxyphenyl)-1,2-dimethyl-5-[2-(2-{4-[2-(oxan-4-yl)ethoxy]phenyl}acetyl)-7-{[(3S)-3-(piperidin-1-ylmethyl)-3,4-dihydro-1H-isoquinolin-2-yl]carbonyl}-3,4-dihydro-1H-isoquinolin-6-yl]pyrrole-3-carboxamide]
IC50 (KMS12PE Bcl2 G101V): 10.1 nM
IC50 (KMS12PE Bcl2 V156D): 7.65 nM
IC50 (KMS12PE Bcl2 D103V): 2.22 nM
IC50 (KMS12PE Bcl2 F104L): 24.1 nM

More lines, now with the values behind:

SMILES: Cc1c(N(C(=O)c2cc(-c3cc4c(cc3C(=O)N3Cc5ccccc5C[C@H]3CN3CCCCC3)CN(C(=O)Cc3ccc(OCCN5CCOCC5)cc3F)CC4)n(C)c2C)c2ccc(O)cc2)cc(C#N)n1C [Example 43, N-(5-cyano-1,2-dimethylpyrrol-3-yl)-5-[2-(2-{2-fluoro-4-[2-(morpholin-4-yl)ethoxy]phenyl}acetyl)-7-{[(3S)-3-(piperidin-1-ylmethyl)-3,4-dihydro-1H-isoquinolin-2-yl]carbonyl}-3,4-dihydro-1H-isoquinolin-6-yl]-N-(4-hydroxyphenyl)-1,2-dimethylpyrrole-3-carboxamide]
Ki (BCL2 G101V [1]): 0.2 nM
TR_FRET EKI G101V/WT selectivty ratio (BCL2 G101V [2]): 5.0
Ki (BCL2 D103Y): 0.14 nM
IC50 (KMS12PE Bcl2 G101V): 10 nM
IC50 (KMS12PE Bcl2 V156D): 6.63 nM
IC50 (KMS12PE Bcl2 D103V): 2 nM
IC50 (KMS12PE Bcl2 F104L): 8.49 nM

SMILES: Cc1c(N(C(=O)c2cc(-c3cc4c(cc3C(=O)N3Cc5ccccc5C[C@H]3C)CN(C(=O)Cc3ccc(N5CCN6CCOC[C@@H]6C5)cc3F)CC4)n(C)c2C)c2ccc(O)cc2)cc(C#N)n1C [Example 45, 5-[2-(2-{4-[(9aS)-octahydropyrazino[2,1-c][1,4]oxazin-8-yl]-2-fluorophenyl}acetyl)-7-[(3R)-3-methyl-1,2,3,4-tetrahydroisoquinoline-2-carbonyl]-1,2,3,4-tetrahydroisoquinolin-6-yl]-N-(5-cyano-1,2-dimethyl-1H-pyrrol-3-yl)-N-(4-hydroxyphenyl)-1,2-dimethyl-1H-pyrrole-3-carboxamide]
Ki (BCL2 G101V [1]): 0.4 nM
TR_FRET EKI G101V/WT selectivty ratio (BCL2 G101V [2]): 4.8
Ki (BCL2 D103Y): 0.15 nM
IC50 (KMS12PE Bcl2 G101V): 18.2 nM
IC50 (KMS12PE Bcl2 V156D): 0.96 nM
IC50 (KMS12PE Bcl2 D103V): 2.7 nM
IC50 (KMS12PE Bcl2 F104L): 22.5 nM

SMILES: Cc1c(N(C(=O)c2cc(-c3cc4c(cc3C(=O)N3Cc5ccccc5C[C@H]3C)CN(C(=O)Cc3ccc(CCN5CCC(F)(F)CC5)cc3)CC4)n(C)c2C)c2ccc(O)cc2)cc(C#N)n1C [Example 51, N-(5-cyano-1,2-dimethylpyrrol-3-yl)-5-[2-(2-{4-[2-(4,4-difluoropiperidin-1-yl)ethyl]phenyl}acetyl)-7-{[(3R)-3-methyl-3,4-dihydro-1H-isoquinolin-2-yl]carbonyl}-3,4-dihydro-1H-isoquinolin-6-yl]-N-(4-hydroxyphenyl)-1,2-dimethylpyrrole-3-carboxamide]
Ki (BCL2 G101V [1]): 1 nM
TR_FRET EKI G101V/WT selectivty ratio (BCL2 G101V [2]): 4.5
Ki (BCL2 D103Y): 0.92 nM
IC50 (KMS12PE Bcl2 G101V): 20.2 nM
IC50 (KMS12PE Bcl2 V156D): 31.9 nM
IC50 (KMS12PE Bcl2 D103V): 4.63 nM
IC50 (KMS12PE Bcl2 F104L): 58.9 nM

SMILES: COC[C@@H]1Cc2ccccc2CN1C(=O)c1cc2c(cc1-c1cc(C(=O)N(c3ccc(O)cc3)c3cc(C#N)n(C)c3C)c(C)n1C)CCN(C(=O)Cc1ccc(OCCC3CCOCC3)cc1F)C2 [Example 52, N-(5-cyano-1,2-dimethylpyrrol-3-yl)-5-[2-(2-{2-fluoro-4-[2-(oxan-4-yl)ethoxy]phenyl}acetyl)-7-{[(3S)-3-(methoxymethyl)-3,4-dihydro-1H-isoquinolin-2-yl]carbonyl}-3,4-dihydro-1H-isoquinolin-6-yl]-N-(4-hydroxyphenyl)-1,2-dimethylpyrrole-3-carboxamide]
Ki (BCL2 G101V [1]): 0.5 nM
TR_FRET EKI G101V/WT selectivty ratio (BCL2 G101V [2]): 2.3
Ki (BCL2 D103Y): 0.23 nM
IC50 (KMS12PE Bcl2 G101V): 10.6 nM
IC50 (KMS12PE Bcl2 V156D): 10.6 nM
IC50 (KMS12PE Bcl2 D103V): 2.78 nM
IC50 (KMS12PE Bcl2 F104L): 11.1 nM

SMILES: Cc1c(C(=O)N(c2ccc(O)cc2)c2cc(C#N)n(C(F)F)c2C)cc(-c2cc3c(cc2C(=O)N2Cc4ccccc4C[C@H]2CN2CCCCC2)CN(C(=O)Cc2ccc(OCCN4CCOCC4)cc2)CC3)n1C [Example 77]
Ki (BCL2 G101V [1]): 0.3 nM
TR_FRET EKI G101V/WT selectivty ratio (BCL2 G101V [2]): 5.1
Ki (BCL2 D103Y): 0.14 nM
IC50 (KMS12PE Bcl2 G101V): 28.2 nM
IC50 (KMS12PE Bcl2 V156D): 19.1 nM
IC50 (KMS12PE Bcl2 D103V): 6.28 nM
IC50 (KMS12PE Bcl2 F104L): 31.9 nM
